Measured values taken from patent publication US10139420B2, “Methods for treating vaso-occlusive crisis using non-modified annexin V” (ISNERM (Institut National de la Sante et de la Recherche …, priority 2011, dated 2018).

Legend:
SAD transgenic mice = test: Vaso-occlusive crises in mice: renal artery blood flow velocity by Echo-Doppler, cardiac output, renal histology; type: in vivo, mouse; conditions: for reduction in the mean blood flow velocity of the right renal arteries: TSP1 1 mg/kg intravenous
Description: We characterized the induction of VOC in SAD transgenic mice (18, 19) according to our previously published method, in response to the intravenous administration of TSP1 (1 mg/kg), TSP1-derived peptides 4N1-1 or 4N1-2, or purified erythrocyte MP. Briefly, mice were anesthetized with isoflurane and monitored to prevent any cardiorespiratory depression. Mice were shaved and placed in the decubitus position on a heating blanket (38° C.). We used a Vivid 7 echograph (GE Medical Systems®, Horten, Norway) equipped with a 12-MHz linear transducer (12 L). The ultrasound probe was placed on the left side of the abdomen for examination of renal arteries, or in left lateral decubitus for cardiac output acquisition with transducer on the chest. Data were transferred on-line to an EchoPAC ultrasound image analysis workstation (GE Medical Systems®). Two-Dimensional ultrasound imaging of the abdomen in left-sided longitudinal B-mode allowed kidney width and height measurements. Color-coded blood flow detection by Doppler enabled renal arteries to be localized. A pulsed Doppler spectrum was recorded and peak systolic, end-diastolic and time-average mean BFV were measured in the renal artery, with Doppler beam angle correction. To calculate cardiac output, spatial flow profiles were analyzed in parasternal long-axis B-mode images of the pulmonary artery and BFV were measured as above. The following formula was applied: CO=[(V^mean·60)·(π·(Dpa/2^2)], where CO is the cardiac output in ml/minute, V^mean is the mean time-averaged BFV in cm/s and Dpa is the pulmonary artery diameter in cm. Kidney sizes and BFV were determined by the same investigator, as means of 5 to 8 measurements. Repeatability for cardiac output measurements was verified. We controlled and confirmed that kidney size was similar between SAD and wild type mice. After sacrifice, kidneys were dissected, dehydrated, mounted in paraffin, sectioned and stained by Masson trichrome. Vascular congestion was observed by phase-contrast microscopy, as large erythrocyte aggregates occluding kidney capillaries and larger vessels. In some experiments, TSP1 (1 mg/kg) or control BSA (1 mg/kg) were injected. After 5 minutes, mice were terminally anesthetized by pentobarbital overdose. Whole blood was collected through cardiac puncture, centrifuged (400 g, 15 minutes) to eliminate erythrocytes and leukocytes, and double centrifuged (12500 g, 5 minutes) to eliminate platelets with minimal activation. Supernatants were considered platelet-free plasma (PFP). Circulating MP were quantified by FACS.
We evaluated the concept that TSP1 influences VOC during SCD in vivo. We used SAD transgenic mice that express a mutated human hemoglobin β-chain known to cause sickle cell formation and sensitivity to VOC (18, 19).

wild type mice [1] = test: Vaso-occlusive crises in mice: renal artery blood flow velocity by Echo-Doppler (wild type); type: in vivo, mouse
Description: (§1) We characterized the induction of VOC in SAD transgenic mice (18, 19) according to our previously published method, in response to the intravenous administration of TSP1 (1 mg/kg), TSP1-derived peptides 4N1-1 or 4N1-2, or purified erythrocyte MP. Briefly, mice were anesthetized with isoflurane and monitored to prevent any cardiorespiratory depression. Mice were shaved and placed in the decubitus position on a heating blanket (38° C.). We used a Vivid 7 echograph (GE Medical Systems®, Horten, Norway) equipped with a 12-MHz linear transducer (12 L). The ultrasound probe was placed on the left side of the abdomen for examination of renal arteries, or in left lateral decubitus for cardiac output acquisition with transducer on the chest. Data were transferred on-line to an EchoPAC ultrasound image analysis workstation (GE Medical Systems®). Two-Dimensional ultrasound imaging of the abdomen in left-sided longitudinal B-mode allowed kidney width and height measurements. […] A pulsed Doppler spectrum was recorded and peak systolic, end-diastolic and time-average mean BFV were measured in the renal artery, with Doppler beam angle correction. To calculate cardiac output, spatial flow profiles were analyzed in parasternal long-axis B-mode images of the pulmonary artery and BFV were measured as above. […] Circulating MP were quantified by FACS.

wild type mice [2] = test: Circulating PS+ MP in platelet-free plasma by FACS (annexin-V labeling), wild type mice; type: in vivo, mouse; conditions: TSP1 injection (1 mg/kg), within 5 minutes, vs control
Description: as §1, with “L).” for “L). The ultrasound probe was placed on the left side of the abdomen for examination of renal arteries, or in left lateral decubitus for cardiac output acquisition with transducer on the chest. Data were transferred on-line to an EchoPAC ultrasound image analysis workstation (GE Medical Systems®). Two-Dimensional ultrasound imaging of the abdomen in left-sided longitudinal B-mode allowed kidney width and height measurements.”
(§2) Netherlands) in the absence or presence of TSP1 (25 μg/ml), or TSP1-derived peptides 4N1-1 or 4N1-2 (25 μM). […] Erythrocytes were immediately separated and supernatant PS^+ MP quantified by FACS. […] MP concentrations were determined as previously described (20). […] MP were analyzed on a Coulter EPICS XL flow cytometer (Beckman Coulter). […] MP-size events were analyzed in FL/FSC fluorescence dot plots to determine annexin-V labeling. […]

SAD mice = test: Circulating PS+ MP in platelet-free plasma by FACS (annexin-V labeling), SAD mice; type: in vivo, mouse; conditions: SAD mice, TSP1 injection (1 mg/kg), within 5 minutes, vs control SAD
Description: as §1, with “L).” for “L). The ultrasound probe was placed on the left side of the abdomen for examination of renal arteries, or in left lateral decubitus for cardiac output acquisition with transducer on the chest. Data were transferred on-line to an EchoPAC ultrasound image analysis workstation (GE Medical Systems®). Two-Dimensional ultrasound imaging of the abdomen in left-sided longitudinal B-mode allowed kidney width and height measurements.”
as §2

[3] = test system: wild type mouse erythrocytes; test: Echinocyte conversion and MP shedding by isolated erythrocytes (LORCA ektacytometer, microscopy, FACS), wild type; type: cell-based; conditions: under shear, TSP1 (25 μg/ml), within minutes
Description: (§3) Mouse blood was obtained through retro-orbital sinus puncture, mixed with anti-coagulant heparin buffer (5 UI/ml), and collected on citrated tubes. Blood diluted 1:1 with PBS (Gibco-Life Sciences) was placed onto histopaque-1083 (Sigma) density gradients for centrifugation (600 g, 25 minutes). Erythrocyte pellets were resuspended, washed in DMEM and stored for up to 4 hours at room temperature. Erythrocyte surface CD47 expression was assessed by FACS. Fresh RBC were washed and blocked with PBS-BSA 5% for 30 min and immunoreacted with mouse-specific fluoroisothiocyanate (FITC)-coupled anti-CD47 monoclonal antibody (clone mIAP301; BD Biosciences, Le Pont de Claix, France), or matched irrelevant IgG2aκ isotype for 45 min in 2% PBS-BSA. Erythrocytes were washed in PBS-BSA 2% prior to FACS analysis. Erythrocyte phenotypes were analyzed by […] electronic microscopy. Briefly, mouse erythrocytes were fixed with glutaraldehyde 1% and paraformaldehyde 4%, dehydrated and embedded in Epon™ epoxy resin. Sections contrasted with uranyl acetate and lead citrate were examined with a JEOL JEM 1010 microscope. Average apparent spicule number was determined by direct counting in 80 to 120 cells per condition.
(§4) To trigger MP shedding, erythrocyte were suspended in polyvinylpyrrolidone (31 mPa.s) and placed in a rotating type LORCA ektacytometer (R&R Mechatronics, Hoorn, The
(§5) Netherlands) in the absence or presence of TSP1 (25 μg/ml), or TSP1-derived peptides 4N1-1 or 4N1-2 (25 μM). Shear rate was applied according to the builder's program (1500 s^−1; 2.5 minutes). Erythrocytes were immediately separated and supernatant PS^+ MP quantified by FACS. Concentrated MP stocks were generated from 10 to 20 ml of supernatant from erythrocytes suspended in RPMI-1640 (4.10^6/ml) and treated with 4N1-1. Suspensions were centrifuged at 400 g for 15 min to discard cells, and ultracentrifuged at 20500 g for 45 min to pellet MP, which were resuspended in filtered (0.2 μm) DMEM and stored at −80° C. MP concentrations were determined as previously described (20). Briefly, MP were labeled with 2 μl FITC-conjugated annexin-V (Roche Diagnostics, France) diluted in 100 μl reaction buffer with 5 mM CaCl2. CaCl2 was omitted in negative controls. MP were analyzed on a Coulter EPICS XL flow cytometer (Beckman Coulter). MP were identified in forward light scatter (FSc) and side-angle light scatter (SSc) intensity dot plots set at logarithmic gain, as events of 0.1-1 μm in diameter. MP-size events were analyzed in FL/FSC fluorescence dot plots to determine annexin-V labeling. MP concentration was determined with respect to calibrated fluorescent microbeads (Flowcount). To determine erythrocyte origin, MP were double labeled with rat PE-Cy7-coupled mouse-specific anti-Ter119 antibody (Biolegend via Ozyme, France), or matched irrelevant IgG2bκ isotype.

SAD mouse erythrocytes = test: Echinocyte conversion and MP shedding by isolated erythrocytes (LORCA ektacytometer, microscopy, FACS), SAD; type: cell-based
Description: as §3, §4, §5

SCD patients = conditions: long term treatment; cited from earlier work
[4] = after intravenous injection (TSP1 1 mg/kg; MP 300.10^3 MP/mouse)
[5] = TSP1 and shear stress, vs control (discussion)

Molecule | reduction in the mean blood flow velocity of the right renal arteries (SAD transgenic mice; after 5 minutes) [%] | reduction in the mean blood flow velocity of the right renal arteries (SAD transgenic mice; rapid) [%] | drop in renal perfusion (SAD transgenic mice; TSP1 injection, within minutes) [%] | diastolic and mean blood flow velocities (SAD transgenic mice; [4]) | renal histology after Masson trichrome stain (SAD transgenic mice; [4]) | systolic blood flow velocity (SAD transgenic mice; [4]) | systolic, diastolic and mean blood flow velocities (wild type mice [1]; TSP1 1 mg/kg intravenous) | renal perfusion (wild type mice [1]; TSP1 injection) | raise in plasma PS+ MP (wild type mice [2]) [fold] | increase in circulating PS+ MP (SAD mice) [fold] | proportion of wild type echinocytes reached [3] [%] | raise in the proportion of wild type echinocytes [3] | effect on sickle cells (SAD mouse erythrocytes; SAD erythrocytes, TSP1 or peptide) | MP shedding by SAD erythrocytes (SAD mouse erythrocytes; [5]) | proportion of SAD echinocytes (SAD mouse erythrocytes; [5]) | increase in SAD echinocytes (SAD mouse erythrocytes; under shear, TSP1 (25 μg/ml) or peptide (25 μM), vs control) [%] | long term safety (SCD patients) | proportion of SCD patients in whom treatment is effective (SCD patients)
TSP1: Human recombinant TSP1 produced by EMP-Genetech (Germany) | 35 | 20 | 30 | dramatically decreased | red blood cells aggregates and vascular congestion | unchanged | remained unchanged | did not modify renal perfusion | 3 | 3 | 30 | over 10 fold | did not affect sickle cells | doubled | doubled | 50 |  | 
NC(=O)NO [hydroxy-urea] |  |  |  |  |  |  |  |  |  |  |  |  |  |  |  |  | presumptions of carcinogenesis in the long term | about 40%
